Source: US7078403B1, “Antiviral agents” (Biota Scientific Management Pty Ltd., priority 1999, dated 2006)
Converted amounts (≈) assume the structure as drawn. Like-named read-outs stand apart in the source and are kept apart here.

Assays:
Rhinovirus Type 14 = format: cell-based, human rhinovirus; details: for EC50: Enterovirus
in vitro [1] = details: mammalian cell culture (cell line not stated)
HRV type 1A = test: Inhibition of viral cytopathic effect (CPE), visual scoring or neutral red, HRV type 1A in MRC-5 cells; format: cell-based, human rhinovirus; details: for Activity on Rhinovirus Type 1A EC50: HRV type 1A in MRC-5 cells; for Activity on Rhinovirus Type 1A EC50 / EC50: CPE inhibition; for Activity on Rhinovirus Type 1A SI: selectivity index = CC50 or MTC divided by EC50, HRV type 1A, MRC-5 cells; for EC50: Enterovirus, MRC5, HRV type 1A in MRC-5 cells, read-out: Activity on Rhinovirus Type 1A EC50
HRV type 2 = test: Inhibition of viral cytopathic effect (CPE), visual scoring or neutral red, HRV type 2 in KB cells; format: cell-based, human rhinovirus; details: for Activity on Rhinovirus Type 2 EC50 / EC50: HRV type 2 in KB cells, CPE inhibition; for Activity on Rhinovirus Type 2 SI: selectivity index = CC50 or MTC divided by EC50, HRV type 2, KB cells; for EC50: Enterovirus, read-out: Activity on Rhinovirus Type 2 EC50
[2] = tested on: human embryo lung (MRC-5) cells; test: Cytotoxicity (CC50 or MTC) in uninfected MRC-5 cells; details: unit not given
[3] = tested on: Human Rhinovirus strains 1B, 3, 4, 5, 6, 8, 9, 11, 12, 13, 16, 17, 21, 25, 30, 32, 33, 38, 39, 40, 42, 43, 45, 48, 52, 54, 56, 57, 59, 60, 63, 67, 68, 69, 72 …; test: Standard CPE reduction assay against a panel of Human Rhinovirus strains; format: cell-based
[4] = tested on: human embryo lung (MRC-5) cells
Enterovirus 70 = test: Activity on Enterovirus 70 in mammalian cell culture assay; format: cell-based; details: Enterovirus D
Coxsackie A21 = test: Activity on Coxsackie A21 in mammalian cell culture assay; format: cell-based
[5] = tested on: Enterovirus strains Poliovirus 2, Echoviruses 2, 3, 9, 21 and 30 and Coxsackie B3; format: cell-based; details: all Enterovirus strains tested
in vitro [6] = details: human
in vitro [7] = test: in vitro
in vitro [8] = test: in vitro; remark: listed apart in the source
HRV-2 = test: Time of addition study, CPE inhibition of HRV-2 in KB cells; format: cell-based, human rhinovirus; details: Rhinovirus A, read-out: EC50 (visual assay)
[9] = HRV14, HRV-14, read-out: Activity on Rhinovirus Type 14 EC50
[10] = mammalian cell culture (cell line not stated)

Row | SMILES | Activity on Rhinovirus Type 1A EC50 (HRV type 1A) | Activity on Rhinovirus Type 1A SI (HRV type 1A) | Activity on Rhinovirus Type 2 EC50 (HRV type 2) | Activity on Rhinovirus Type 2 SI (HRV type 2) | Activity on Rhinovirus Type 14 EC50 (Rhinovirus Type 14; HRV-14) | Activity on Rhinovirus Type 1A MTC [2] | also measured
1 | Cc1cc(CCCOc2c(C)cc(-c3noc(C(F)(F)F)n3)cc2C)on1 [Pleconaril, reference compound] | – | – | – | – | – | – | EC50 (Rhinovirus Type 14; HRV14, read-out: Activity on Rhinovirus Type 14 EC50): 0.0608 µg/mL (≈ 0.159 µM); CC50 (in vitro [1]): > 0.1 µg/mL
2 | CCO/N=C/c1csc(OCCC2CCN(c3ccc(C)nn3)CC2)n1 [Compound 155, 2-(1-(6 methyl-3-pyridazinyl)-4-piperidinylethoxy)-thiazole-4-carboxaldehyde O-ethyl oxime] | – | – | – | – | – | – | EC50 (Rhinovirus Type 14; [9]): 0.0138 µg/mL (≈ 0.0368 µM); CC50 (in vitro [1]): > 0.5 µg/mL
3 | CON=Cc1ccc(OCCC2CCN(c3ccc(Cl)nn3)CC2)c(OC)c1 [Compound 33] | 0.014 µg/mL | >72.4 | 0.04 µg/mL | >25 | 0.0138 µg/mL | >1 | –
4 | CON=Cc1ccc(OCCC2CCN(c3ccc(Cl)nn3)CC2)cc1 [Compound 8] | <0.0032 µg/mL | >312 | 0.03 µg/mL | >33 | 0.0072 µg/mL | >1 | –
5 | CCON=Cc1cc(C)c(OCCCc2cc(C)no2)c(C)c1 [Compound 24] | <0.16 µg/mL | >320 | <0.05 µg/mL | >500 | – | >50 | Inhibitory activity compared with Pleconaril ([3]; HRV strains panel): superior activity to Pleconaril
6 | CCO/N=C/c1cc(C)c(OCCCc2cc(-c3ccccc3)no2)c(C)c1 [Compound 127, 3,5-Dimethyl-[4-{3-(3-Phenyl-5-isoxazolyl)propoxy)]benzaldehyde O-ethyloxime] | – | >3 | – | – | – | – | EC50 (HRV type 1A): 0.329 µg/mL (≈ 0.869 µM); Activity on Rhinovirus Type 1A MTC [4]: >1
7 | CCON=Cc1ccc(OCCC2CCN(c3ccc(Cl)nn3)CC2)c(OC)c1 [Compound 5] | <0.0032 µg/mL | >312 | 0.009 µg/mL | >111 | 0.0077 µg/mL | >1 | –
8 | CCO/N=C/c1ccc(OCCC2CCN(c3ccc(Cl)nn3)CC2)cc1 [Compound 1, 4-{2-[1-(6-Chloro-3-pyridazinyl)4-piperidinyl]ethoxy}benzaldehyde O-ethyloxime] | – | – | – | >1000 | – | – | EC50 (HRV type 2): < 0.001 µg/mL; EC50 (Enterovirus 70): 0.03 µg/mL (≈ 0.0771 µM); EC50 (Coxsackie A21): < 0.000156 µg/mL; Inhibitory activity compared with Pirodavir ([3]; nearly all HRV strains tested): superior activity to Pirodavir; Inhibitory activity compared with Pirodavir [5]: superior activity to Pirodavir; CC50 (in vitro [6]): > 1 µg/mL; CC50 (in vitro [7]): > 50 µg/mL; CC50 (in vitro [8]): > 50 µg/mL
9 | CON=Cc1ccc(OCCC2CCN(c3ccc(Cl)nn3)CC2)c(C)c1 [Compound 44] | <0.003 µg/mL | >312 | 0.026 µg/mL | >38 | 0.0194 µg/mL | >1 | –
10 | CCON=Cc1ccc(OCCC2CCN(c3ccc(Cl)nn3)CC2)c(C)c1 [Compound 42] | 0.006 µg/mL | >177.8 | 0.006 µg/mL | >167 | 0.0111 µg/mL | >1 | –
11 | CCO/N=C/c1ccc(OCCCCCN(C)c2ccc(Cl)nn2)cc1 [Compound 161] | – | – | – | – | – | – | EC50 (Rhinovirus Type 14; [9]): 0.0348 µg/mL (≈ 0.0923 µM); CC50 (in vitro [1]): > 0.5 µg/mL
12 | CC(C)S(=O)(=O)n1c(N)nc2ccc(/C(=N/O)c3ccccc3)cc21 [Enviroxime] | – | 75.91 | – | – | – | – | EC50 (HRV type 1A): 0.006 µg/mL (≈ 0.0167 µM); EC50 (Enterovirus 70): 0.21 µg/mL (≈ 0.586 µM); EC50 (Coxsackie A21): 0.39 µg/mL (≈ 1.09 µM); Activity on Rhinovirus Type 1A MTC [4]: 0.49
13 | CCON=Cc1ccc(OCCC2CCN(c3ccc(C=O)nn3)CC2)cc1 [Compound 128, 4-(2-[1-(6-Formyl-3-pyridazinyl)-4-piperidinyl]ethoxy)benzaldehyde O-ethyloxime] | – | >15 | – | – | – | – | EC50 (HRV type 1A): 0.063 µg/mL (≈ 0.165 µM); Activity on Rhinovirus Type 1A MTC [4]: >1
14 | CCO/N=C/c1ccc(OCCC2CCN(c3nnc(C)s3)CC2)cc1 [Compound 158] | – | – | – | – | – | – | EC50 (Rhinovirus Type 14; [9]): 0.00095 µg/mL (≈ 0.00254 µM); CC50 (in vitro [1]): > 0.5 µg/mL
15 | C=CCON=Cc1ccc(OCCC2CCN(c3ccc(Cl)nn3)CC2)cc1 [Compound 13] | <0.0032 µg/mL | >312 | 0.006 µg/mL | 83 | 0.0078 µg/mL | >1 | –
16 | NC(=O)c1ncn([C@@H]2O[C@H](CO)[C@@H](O)[C@H]2O)n1 [Ribavirin] | – | 51.03 | – | – | – | 98.3 | EC50 (HRV type 1A): 1.93 µg/mL (≈ 7.9 µM); EC50 (Enterovirus 70): > 100 µg/mL; EC50 (Coxsackie A21): > 100 µg/mL; CC50 (in vitro [7]; [10]): > 100 µg/mL; CC50 (in vitro [8]; [10]): > 100 µg/mL
17 | CCOC(=O)c1ccc(OCCC2CCN(c3ccc(C)nn3)CC2)cc1 [Pirodavir, ethyl 4-[2-[1-(6-methyl-3-pyridazinyl)-4-piperidinyl]-ethoxy]benzoate] | – | 555.74 | – | >300 | – | – | EC50 (HRV type 1A): 0.02 µg/mL (≈ 0.0541 µM); EC50 (HRV type 2): 0.003 µg/mL (≈ 0.00812 µM); EC50 (HRV-2; HRV2, time of addition 0 hr): 0.004 µg/mL (≈ 0.0108 µM); EC50 (HRV-2; HRV2, time of addition 1 hr post-virus): 0.1 µg/mL (≈ 0.271 µM); EC50 (HRV-2; HRV2, time of addition 2 hr post-virus): > 0.1 µg/mL; EC50 (HRV-2; HRV2, time of addition 4 hr post-virus): > 0.1 µg/mL; EC50 (HRV-2; HRV2, time of addition 6 hr post-virus): > 0.1 µg/mL; EC50 (HRV-2; HRV2, time of addition 8 hr post-virus): > 0.1 µg/mL; EC50 (HRV-2; HRV2, time of addition 24 hr post-virus): > 0.1 µg/mL; EC50 (HRV-2; HRV2, time of addition −1 hr (pre-treatment)): 0.023 µg/mL (≈ 0.0623 µM); Activity on Rhinovirus Type 1A MTC [4]: >10.00; CC50 (in vitro [6]): > 1 µg/mL
